Results on 13 molecules are retold here after PMC3746989 (ACS medicinal chemistry letters, 2013).

In data set [1] the test system is ScN2a-cl3 cells. Description: Cell viability / compound toxicity with fluorescent probe calcein-AM. The data set is classed as cell-based, mouse.
Data set [2] can be described thus: In vivo mouse single-dose PK, brain and plasma exposure. To be noted: for brain exposure / drug levels in brain: mice, oral dosing.
Data set [3] has as its system PrP^Sc in RML prion-infected mouse neuroblastoma (ScN2a-cl3) cells. The class given is cell-based. To be noted: for antiprion activity: relative to the 4-bromophenyl amide 10.
Where [4] appears, read: mouse, oral 10 mg/kg, brain, relative to 21.

Where only a bound is given, the exact number is not on record here.

For `CCN1CCN(c2ccc(NC(=O)c3ccc(-c4ccncc4)cc3)cc2)CC1` [Compound 22], the “Calcein AM LD50” value in data set [1] is on record as >10,000 nM.

Regarding `CC(C)N1CCN(c2ccc(NC(=O)c3ccc(-c4ccccn4)cc3)cn2)CC1` [Compound 25], the “Calcein AM LD50” value in data set [1] is on record as >10,000 nM.

For the molecule `CC(C)N1CCN(c2ccc(NC(=O)c3ccc(-c4ccccn4)cc3)c(F)c2)CC1` [Compound 26], the “metabolic stability in hepatic microsomal preparations” value (“metabolic stability” for short) is reported as “excellent metabolic stability”. The “Calcein AM LD50” value in data set [1] is reported as >10,000 nM. Also, the “brain exposure / drug levels in brain” value in data set [2] was “excellent drug levels in the brains”.

With `CC(C)N1CCN(c2ccc(NC(=O)c3ccc(-c4ccccn4)cc3)cc2F)CC1` [Compound 27], the “metabolic stability” value is on record as “excellent metabolic stability”. In data set [1], the “Calcein AM LD50” value is listed as >10,000 nM. Besides, in data set [2], the “brain exposure / drug levels in brain” value was “excellent drug levels in the brains”.

Take `CC(C)N1CCN(c2ccc(NC(=O)c3ccc(-c4ccccn4)cc3)cc2)CC1` [Compound 23]: the “Calcein AM LD50” value in data set [1] is >10,000 nM. For the same molecule, the “brain exposure / drug levels in brain” value in data set [2] is reported as “much lower brain exposure than either 16 or 20”.

Turning to `CCOc1cccc(C(=O)Nc2ccc(N3CCN(C)CC3)cc2)c1` [Compound 8], in data set [3], the “antiprion activity” value was “inactivity”.

With `CC(C)N1CCN(c2ccc(NC(=O)c3ccc(-c4ccccc4)cc3)cc2)CC1` [Compound 17], the “metabolic stability” value is “excellent metabolic stability”. The “Calcein AM LD50” value in data set [1] was >10,000 nM. The “brain exposure / drug levels in brain” value in data set [2] is recorded as “excellent drug levels in the brains”.

As for `CCN1CCN(c2ccc(NC(=O)c3ccc(-c4cccnc4)cc3)cc2)CC1` [Compound 21], in data set [1], the “Calcein AM LD50” value was >10,000 nM.

On to `CN1CCN(c2ccc(NC(=O)c3cccc(Br)c3)cc2)CC1` [Compound 9], for which the “antiprion activity” value in data set [3] is listed as “inactivity”.

As for `CCN1CCN(c2ccc(NC(=O)c3ccc(-c4ccccn4)cc3)cc2)CC1` [Compound 20], the “Calcein AM LD50” value in data set [1] is reported as >10,000 nM. For the same molecule, the “brain exposure / drug levels in brain” value in data set [2] is “excellent drug levels in the brains”. In addition, in data set [2] (setting [4]), the “fold higher brain AUC than 21” value is listed as above 7 fold and the “fold higher brain Cmax than 21” value is above 4 fold.

With `CN1CCN(c2ccc(NC(=O)c3ccc(-c4ccccc4)cc3)cc2)CC1` [Compound 15], the “fold increase in antiprion potency over compound 7” value in data set [3] (relative to original lead 7) was 4 fold. Moreover, in data set [1], the “Calcein AM LD50” value is given as above 5000 nM.

As for `CC(=O)c1ccc(NC(=O)c2ccc(-c3ccccc3)cc2)cc1` [Compound 14], the “fold improvement in potency, 14 versus 6” value in data set [3] amounted to 10 fold.

For `CC(C)N1CCN(c2ccc(NC(=O)c3ccc(-c4ccccn4)cc3)nc2)CC1` [Compound 24], the “metabolic stability” value is reported as “excellent metabolic stability”. Also, the “Calcein AM LD50” value in data set [1] is given as >10,000 nM. For the same molecule, the “brain exposure / drug levels in brain” value in data set [2] is recorded as “excellent drug levels in the brains”.
